Measured values from ChEMBL document CHEMBL3991601, “The target landscape of clinical kinase drugs” (Science, 2017).
pKd: −log10 of the molar value. Calls of active or inactive are those of the source. On the calls: in the data inactive means no Kd found up to 30 µM.

How the values were obtained:
[1] = target: T1, Ras-related protein Rab-27A (Homo sapiens, UniProt P51159)
T1 sequence (P51159 whole entry): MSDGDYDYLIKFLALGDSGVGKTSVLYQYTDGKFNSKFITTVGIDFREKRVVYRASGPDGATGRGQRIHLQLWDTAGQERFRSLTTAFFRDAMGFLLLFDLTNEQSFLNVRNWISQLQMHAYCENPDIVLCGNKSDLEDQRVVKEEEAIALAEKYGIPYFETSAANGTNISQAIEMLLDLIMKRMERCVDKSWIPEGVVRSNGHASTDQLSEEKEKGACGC

[2] = target: T2, Cysteine--tRNA ligase, cytoplasmic (Homo sapiens, UniProt P49589)
T2 sequence (P49589 whole entry): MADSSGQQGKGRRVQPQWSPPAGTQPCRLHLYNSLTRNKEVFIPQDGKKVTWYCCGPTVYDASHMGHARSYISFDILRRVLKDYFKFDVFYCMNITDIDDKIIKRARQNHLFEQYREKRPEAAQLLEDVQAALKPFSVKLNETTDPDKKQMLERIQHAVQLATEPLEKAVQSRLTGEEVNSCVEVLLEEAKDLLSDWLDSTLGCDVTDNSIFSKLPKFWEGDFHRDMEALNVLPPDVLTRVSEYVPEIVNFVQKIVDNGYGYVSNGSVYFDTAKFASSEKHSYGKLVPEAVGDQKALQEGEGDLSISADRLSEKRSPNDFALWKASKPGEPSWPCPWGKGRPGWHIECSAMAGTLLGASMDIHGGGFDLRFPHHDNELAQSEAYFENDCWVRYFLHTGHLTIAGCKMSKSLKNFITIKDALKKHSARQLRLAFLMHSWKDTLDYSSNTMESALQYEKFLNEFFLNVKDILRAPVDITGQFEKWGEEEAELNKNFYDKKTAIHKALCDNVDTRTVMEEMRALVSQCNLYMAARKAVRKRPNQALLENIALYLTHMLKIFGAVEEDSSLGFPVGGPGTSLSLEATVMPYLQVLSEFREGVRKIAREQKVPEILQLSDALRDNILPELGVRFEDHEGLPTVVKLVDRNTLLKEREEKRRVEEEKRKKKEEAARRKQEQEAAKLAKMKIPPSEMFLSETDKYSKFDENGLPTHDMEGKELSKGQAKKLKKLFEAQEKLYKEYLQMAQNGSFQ

[3] = target: T3, ATP-dependent 6-phosphofructokinase, platelet type (Homo sapiens, UniProt Q01813)
T3 sequence (Q01813 whole entry): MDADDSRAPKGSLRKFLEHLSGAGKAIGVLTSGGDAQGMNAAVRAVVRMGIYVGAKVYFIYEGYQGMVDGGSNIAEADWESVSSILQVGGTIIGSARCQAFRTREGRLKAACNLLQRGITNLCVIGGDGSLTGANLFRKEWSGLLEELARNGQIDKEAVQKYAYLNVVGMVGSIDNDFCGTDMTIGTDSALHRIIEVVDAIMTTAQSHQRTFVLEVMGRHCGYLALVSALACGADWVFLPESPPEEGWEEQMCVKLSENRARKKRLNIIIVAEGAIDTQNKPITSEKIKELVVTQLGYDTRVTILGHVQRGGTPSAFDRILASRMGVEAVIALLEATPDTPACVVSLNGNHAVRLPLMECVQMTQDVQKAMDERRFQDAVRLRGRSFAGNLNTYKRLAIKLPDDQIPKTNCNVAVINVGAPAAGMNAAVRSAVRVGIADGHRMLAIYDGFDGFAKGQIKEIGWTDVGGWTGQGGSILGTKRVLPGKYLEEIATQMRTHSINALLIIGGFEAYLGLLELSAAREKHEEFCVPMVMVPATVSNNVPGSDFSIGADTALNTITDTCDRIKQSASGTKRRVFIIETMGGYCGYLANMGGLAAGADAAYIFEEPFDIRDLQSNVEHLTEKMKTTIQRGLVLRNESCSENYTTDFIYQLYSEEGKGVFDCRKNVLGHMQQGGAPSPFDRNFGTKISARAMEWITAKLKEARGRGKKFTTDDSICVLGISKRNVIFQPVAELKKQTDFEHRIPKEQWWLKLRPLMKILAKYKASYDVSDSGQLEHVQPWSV

GTP-binding protein 4 = GTP-binding protein 4 (Homo sapiens, UniProt Q9BZE4)
[4] = target: T4, Very long-chain specific acyl-CoA dehydrogenase, mitochondrial (Homo sapiens, UniProt P49748)
T4 sequence (P49748 whole entry): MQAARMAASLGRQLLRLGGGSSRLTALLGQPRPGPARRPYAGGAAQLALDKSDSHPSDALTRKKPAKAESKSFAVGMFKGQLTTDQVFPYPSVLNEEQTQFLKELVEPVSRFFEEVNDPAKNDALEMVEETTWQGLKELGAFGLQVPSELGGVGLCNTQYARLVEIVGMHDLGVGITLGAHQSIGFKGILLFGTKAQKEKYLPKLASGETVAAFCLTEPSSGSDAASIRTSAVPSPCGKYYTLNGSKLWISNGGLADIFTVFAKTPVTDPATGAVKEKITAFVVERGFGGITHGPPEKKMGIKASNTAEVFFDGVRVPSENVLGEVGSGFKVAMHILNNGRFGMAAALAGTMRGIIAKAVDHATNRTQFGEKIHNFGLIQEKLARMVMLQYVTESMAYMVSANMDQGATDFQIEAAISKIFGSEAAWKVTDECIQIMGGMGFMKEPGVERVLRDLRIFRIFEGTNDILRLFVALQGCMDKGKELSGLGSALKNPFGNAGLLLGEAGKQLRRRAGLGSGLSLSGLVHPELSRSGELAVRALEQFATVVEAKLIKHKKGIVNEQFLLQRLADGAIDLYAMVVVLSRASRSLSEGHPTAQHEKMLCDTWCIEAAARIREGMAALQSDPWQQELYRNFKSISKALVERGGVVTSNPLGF

Compound	Kd [1]	Kd [2]	Kd [3]	Kd (GTP-binding protein 4)	Kd [4]	pKd [4]
CCc1cnn2c(NCc3ccc[n+]([O-])c3)cc(N3CCCC[C@H]3CCO)nc12 [DINACICLIB]	> 30 µM (inactive)	> 30 µM (inactive)	> 30 µM (inactive)	> 30 µM (inactive)	> 30 µM (inactive)	–
CO[C@H]1C[C@@H]2CC[C@@H](C)[C@@](O)(O2)C(=O)C(=O)N2CCCC[C@H]2C(=O)O[C@H]([C@H](C)C[C@@H]2CC[C@@H](OCCO)[C@H](OC)C2)CC(=O)[C@H](C)/C=C(\C)[C@@H](O)[C@@H](OC)C(=O)[C@H](C)C[C@H](C)/C=C/C=C/C=C/1C [EVEROLIMUS]	> 30 µM (inactive)	> 30 µM (inactive)	> 30 µM (inactive)	> 30 µM (inactive)	> 30 µM (inactive)	–
Cc1cn(-c2cc(NC(=O)c3ccc(C)c(Nc4nccc(-c5cccnc5)n4)c3)cc(C(F)(F)F)c2)cn1 [NILOTINIB]	> 30 µM (inactive)	> 30 µM (inactive)	> 30 µM (inactive)	> 30 µM (inactive)	> 30 µM (inactive)	–
Cc1ccc(-n2nc(C(C)(C)C)cc2NC(=O)NCc2cc(F)ccc2Oc2ccc3c(cnn3CCO)c2)cc1 [PEXMETINIB]	> 30 µM (inactive)	> 30 µM (inactive)	> 30 µM (inactive)	> 30 µM (inactive)	> 30 µM (inactive)	–
CN(C)C(=O)c1cc2cnc(Nc3ccc(N4CCNCC4)cn3)nc2n1C1CCCC1 [RIBOCICLIB]	> 30 µM (inactive)	> 30 µM (inactive)	> 30 µM (inactive)	> 30 µM (inactive)	> 30 µM (inactive)	–
COc1cc(OC)c(/C=C/S(=O)(=O)Cc2ccc(OC)c(NCC(=O)O)c2)c(OC)c1 [RIGOSERTIB]	> 30 µM (inactive)	> 30 µM (inactive)	> 30 µM (inactive)	> 30 µM (inactive)	> 30 µM (inactive)	–
CNC(=O)CN1CCC(Oc2cc3c(Nc4cccc(Cl)c4F)ncnc3cc2OC)CC1 [SAPITINIB]	> 30 µM (inactive)	> 30 µM (inactive)	> 30 µM (inactive)	> 30 µM (inactive)	> 30 µM (inactive)	–
O=C(Nc1cccc(Cl)c1)Nc1ncc(CCNc2ncnc3ccsc23)s1 [SNS-314]	> 30 µM (inactive)	> 30 µM (inactive)	> 30 µM (inactive)	> 30 µM (inactive)	> 30 µM (inactive)	–
C[C@@H]1CN(Cc2ccc(F)cc2)[C@@H](C)CN1C(=O)c1cc2c(C(=O)C(=O)N(C)C)cn(C)c2cc1Cl [TALMAPIMOD]	> 30 µM (inactive)	> 30 µM (inactive)	> 30 µM (inactive)	> 30 µM (inactive)	> 30 µM (inactive)	–
CN1CCC(COc2cnc(-c3cccc(Cn4nc(-c5cccc(C#N)c5)ccc4=O)c3)nc2)CC1 [TEPOTINIB]	> 30 µM (inactive)	> 30 µM (inactive)	> 30 µM (inactive)	> 30 µM (inactive)	> 30 µM (inactive)	–

The remaining lines, values ahead:

Kd [1]	Kd [2]	Kd [3]	Kd (GTP-binding protein 4)	Kd [4]	pKd [4]	Compound
> 30 µM (inactive)	> 30 µM (inactive)	> 30 µM (inactive)	> 30 µM (inactive)	> 30 µM (inactive)	–	Cc1nc(N)sc1-c1ccnc(Nc2ccc(N3CCOCC3)cc2)n1 [CYC-116]
> 30 µM (inactive)	> 30 µM (inactive)	> 30 µM (inactive)	> 30 µM (inactive)	> 30 µM (inactive)	–	CN1CCN(c2ccc3nc(-c4c(N)c5c(F)cccc5[nH]c4=O)[nH]c3c2)CC1 [DOVITINIB]
> 30 µM (inactive)	> 30 µM (inactive)	> 30 µM (inactive)	> 30 µM (inactive)	> 30 µM (inactive)	–	COC(=O)N[C@@H](C)CNc1nccc(-c2cn(C(C)C)nc2-c2cc(Cl)cc(NS(C)(=O)=O)c2F)n1 [ENCORAFENIB]
> 30 µM (inactive)	> 30 µM (inactive)	> 30 µM (inactive)	> 30 µM (inactive)	> 30 µM (inactive)	–	Cc1cc(Nc2cc(N3CCN(C)CC3)nc(/C=C/c3ccccc3)n2)n[nH]1 [ENMD-2076]
> 30 µM (inactive)	> 30 µM (inactive)	> 30 µM (inactive)	> 30 µM (inactive)	> 30 µM (inactive)	–	COCCNCc1ccc(-c2cc3nccc(Oc4ccc(NC(=S)NC(=O)Cc5ccc(F)cc5)cc4F)c3s2)nc1 [GLESATINIB]
> 30 µM (inactive)	> 30 µM (inactive)	> 30 µM (inactive)	> 30 µM (inactive)	> 30 µM (inactive)	–	CC[C@H](Nc1ncnc2[nH]cnc12)c1nc2cccc(F)c2c(=O)n1-c1ccccc1 [IDELALISIB]
> 30 µM (inactive)	> 30 µM (inactive)	> 30 µM (inactive)	> 30 µM (inactive)	> 30 µM (inactive)	–	COc1cc2nccc(Oc3ccc(NC(=O)NC4CC4)c(Cl)c3)c2cc1C(N)=O [LENVATINIB]
> 30 µM (inactive)	> 30 µM (inactive)	> 30 µM (inactive)	> 30 µM (inactive)	> 30 µM (inactive)	–	O=C(O)[C@]1(Cc2cccc(Nc3nccs3)n2)CC[C@@H](Oc2cccc(Cl)c2F)CC1 [MK-5108]
> 30 µM (inactive)	> 30 µM (inactive)	> 30 µM (inactive)	> 30 µM (inactive)	> 30 µM (inactive)	–	OCCn1cc(-c2cnc3nnn(Cc4ccc5ncccc5c4)c3n2)cn1 [PF-04217903]
> 30 µM (inactive)	> 30 µM (inactive)	> 30 µM (inactive)	> 30 µM (inactive)	> 30 µM (inactive)	–	CNC(=O)c1cc(Oc2ccc(NC(=O)Nc3ccc(Cl)c(C(F)(F)F)c3)c(F)c2)ccn1 [REGORAFENIB]
> 30 µM (inactive)	> 30 µM (inactive)	> 30 µM (inactive)	> 30 µM (inactive)	> 30 µM (inactive)	–	C[C@@H](c1ccc2nccn2c1)n1nnc2ncc(-c3cnn(C)c3)nc21 [SAVOLITINIB]
> 30 µM (inactive)	> 30 µM (inactive)	> 30 µM (inactive)	> 30 µM (inactive)	> 30 µM (inactive)	–	CN1CCC(CNc2ccc3ncc(-c4cccc(OC(F)(F)F)c4)n3n2)CC1 [SGI-1776]
> 30 µM (inactive)	> 30 µM (inactive)	> 30 µM (inactive)	> 30 µM (inactive)	–	5.77	Nc1nc(N)c2nc(-c3cccc(O)c3)c(-c3cccc(O)c3)nc2n1 [TG100-115]
> 30 µM (inactive)	> 30 µM (inactive)	> 30 µM (inactive)	> 30 µM (inactive)	> 30 µM (inactive)	–	O=c1sn(-c2cccc3ccccc23)c(=O)n1Cc1ccccc1 [TIDEGLUSIB]
